Read-outs that look alike come from different tables or passages of the source.
Key:
[1] = system: Escherichia coli K-12 MG1655 and evolved isolates; assay type: cell-based; conditions: 45 g/L itaconic acid
Summary of the method: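 Wild-type MG1655 and evolved isolates, precultured overnight in M9 + 1% glucose at 37 °C, were diluted into M9 + 1% glucose. Growth at 37 °C, 225 rpm, scanned every 15 min; pixel values calibrated to OD600. Diacids tested as sodium salts or neutralized to pH 7.0.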

[2] = system: Escherichia coli K-12 MG1655; assay: Growth of K-12 MG1655 in varying concentrations of fumaric, itaconic, malic and succinic acid, Growth Profiler; assay type: cell-based
Description: Five colonies from wild-type K-12 MG1655 and 10 individual colonies deriving from each population were inoculated into 300 μL M9+1% glucose in 96 well deepwell plates and incubated in a 300 rpm plate shaker at 37° C. The next day, cells were diluted 10× in M9+1% glucose and 30 μL was transferred into clear-bottomed 96 well half-deepwell plates (with rectangular wells) containing M9+1% glucose and M9+1% glucose+52.78 g/L glutaric acid or 55.56 g/L adipic acid, such that the final concentration of glutaric acid or adipic acid was 47.5 g/L or 50 g/L, respectively. In addition, cryogenic glycerol stocks of the overnight culture were saved in a 96 well plate format. Half deepwell plates were incubated at 37° C. with 225 rpm shaking in a Growth Profiler (Enzyscreen), with optical scans of the plates taken at 15 minute intervals. Green pixel values integrated over a 1 mm diameter circular area in each well were converted to OD600 values using a previously determined calibration between OD600 and green pixel values.
Additionally, each evolved isolate was tested for cross-tolerance toward other dicarboxylic acids of interest. […] All diacids tested were either the neutral sodium salts, or the free diacid was neutralized with sodium hydroxide to pH 7.0 for testing.

C=C(CC(=O)O)C(=O)O [itaconic acid]
growth rate μ (mean) ([1]; strain ADIP1-1): 0.466 h⁻¹
lag time tlag (mean) ([1]; strain ADIP1-1): 8.3 h
growth rate μ (mean) ([1]; strain ADIP1-9): 0.434 h⁻¹
lag time tlag (mean) ([1]; strain ADIP1-9): 8.7 h
growth rate μ (mean) ([1]; strain ADIP2-5): 0.440 h⁻¹
lag time tlag (mean) ([1]; strain ADIP2-5): 8.3 h
growth rate μ (mean) ([1]; strain ADIP2-6): 0.470 h⁻¹
lag time tlag (mean) ([1]; strain ADIP2-6): 8.2 h
growth rate μ (mean) ([1]; strain ADIP2-10): 0.438 h⁻¹
lag time tlag (mean) ([1]; strain ADIP2-10): 8.3 h
growth rate μ (mean) ([1]; strain ADIP3-2): 0.459 h⁻¹
lag time tlag (mean) ([1]; strain ADIP3-2): 7.9 h
growth rate μ (mean) ([1]; strain ADIP3-4): 0.451 h⁻¹
lag time tlag (mean) ([1]; strain ADIP3-4): 8.4 h
growth rate μ (mean) ([1]; strain ADIP3-8): 0.433 h⁻¹
lag time tlag (mean) ([1]; strain ADIP3-8): 8.5 h
growth rate μ (mean) ([1]; strain ADIP4-1): 0.339 h⁻¹
lag time tlag (mean) ([1]; strain ADIP4-1): 11.2 h
growth rate μ (mean) ([1]; strain ADIP4-8): 0.326 h⁻¹
lag time tlag (mean) ([1]; strain ADIP4-8): 10.4 h
growth rate μ (mean) ([1]; strain ADIP5-2): 0.354 h⁻¹
lag time tlag (mean) ([1]; strain ADIP5-2): 9.4 h
growth rate μ (mean) ([1]; strain ADIP5-6): 0.527 h⁻¹
lag time tlag (mean) ([1]; strain ADIP5-6): 7.2 h
growth rate μ (mean) ([1]; strain ADIP6-3): 0.327 h⁻¹
lag time tlag (mean) ([1]; strain ADIP6-3): 9.9 h
growth rate μ (mean) ([1]; strain ADIP6-9): 0.337 h⁻¹
lag time tlag (mean) ([1]; strain ADIP6-9): 10.3 h
growth rate μ (mean) ([1]; strain ADIP6-10): 0.343 h⁻¹
lag time tlag (mean) ([1]; strain ADIP6-10): 9.1 h
growth rate μ (mean) ([1]; strain ADIP7-2): 0.342 h⁻¹
lag time tlag (mean) ([1]; strain ADIP7-2): 7.9 h
growth rate μ (mean) ([1]; strain ADIP7-5): 0.402 h⁻¹
lag time tlag (mean) ([1]; strain ADIP7-5): 8.6 h
growth rate μ (mean) ([1]; strain ADIP8-3): 0.308 h⁻¹
lag time tlag (mean) ([1]; strain ADIP8-3): 11.7 h
growth rate μ (mean) ([1]; strain ADIP8-7): 0.235 h⁻¹
lag time tlag (mean) ([1]; strain ADIP8-7): 12.5 h
growth rate μ (mean) ([1]; strain ADIP8-10): 0.290 h⁻¹
lag time tlag (mean) ([1]; strain ADIP8-10): 11.3 h
growth rate μ (mean) ([1]; strain GLUT1-3): 0.454 h⁻¹
lag time tlag (mean) ([1]; strain GLUT1-3): 10.2 h
growth rate μ (mean) ([1]; strain GLUT1-9): 0.446 h⁻¹
lag time tlag (mean) ([1]; strain GLUT1-9): 10.4 h
growth rate μ (mean) ([1]; strain GLUT1-10): 0.446 h⁻¹
lag time tlag (mean) ([1]; strain GLUT1-10): 18.1 h
growth rate μ (mean) ([1]; strain GLUT2-1): 0.385 h⁻¹
lag time tlag (mean) ([1]; strain GLUT2-1): 10.8 h
growth rate μ (mean) ([1]; strain GLUT2-9): 0.415 h⁻¹
lag time tlag (mean) ([1]; strain GLUT2-9): 9.0 h
growth rate μ (mean) ([1]; strain GLUT2-10): 0.494 h⁻¹
lag time tlag (mean) ([1]; strain GLUT2-10): 8.8 h
growth rate μ (mean) ([1]; strain GLUT3-5): 0.310 h⁻¹
lag time tlag (mean) ([1]; strain GLUT3-5): 12.0 h
growth rate μ (mean) ([1]; strain GLUT3-7): 0.326 h⁻¹
lag time tlag (mean) ([1]; strain GLUT3-7): 11.7 h
growth rate μ (mean) ([1]; strain GLUT3-9): 0.257 h⁻¹
lag time tlag (mean) ([1]; strain GLUT3-9): 14.5 h
growth rate μ (mean) ([1]; strain GLUT4-1): 0.414 h⁻¹
lag time tlag (mean) ([1]; strain GLUT4-1): 11.7 h
growth rate μ (mean) ([1]; strain GLUT4-4): 0.339 h⁻¹
lag time tlag (mean) ([1]; strain GLUT4-4): 13.4 h
growth rate μ (mean) ([1]; strain GLUT4-10): 0.328 h⁻¹
lag time tlag (mean) ([1]; strain GLUT4-10): 13.5 h
growth rate μ (mean) ([1]; strain GLUT5-4): 0.398 h⁻¹
lag time tlag (mean) ([1]; strain GLUT5-4): 15.2 h
growth rate μ (mean) ([1]; strain GLUT5-5): 0.368 h⁻¹
lag time tlag (mean) ([1]; strain GLUT5-5): 11.4 h
growth rate μ (mean) ([1]; strain GLUT5-9): 0.438 h⁻¹
lag time tlag (mean) ([1]; strain GLUT5-9): 22.5 h
growth rate μ (mean) ([1]; strain GLUT6-4): 0.360 h⁻¹
lag time tlag (mean) ([1]; strain GLUT6-4): 11.3 h
growth rate μ (mean) ([1]; strain GLUT6-5): 0.420 h⁻¹
lag time tlag (mean) ([1]; strain GLUT6-5): 10.6 h
growth rate μ (mean) ([1]; strain GLUT6-10): 0.502 h⁻¹
lag time tlag (mean) ([1]; strain GLUT6-10): 10.5 h
growth rate μ (mean) ([1]; strain GLUT7-2): 0.441 h⁻¹
lag time tlag (mean) ([1]; strain GLUT7-2): 10.6 h
growth rate μ (mean) ([1]; strain GLUT7-6): 0.293 h⁻¹
lag time tlag (mean) ([1]; strain GLUT7-6): 13.7 h
growth rate μ (mean) ([1]; strain GLUT7-7): 0.239 h⁻¹
lag time tlag (mean) ([1]; strain GLUT7-7): 8.5 h
growth rate μ (mean) ([1]; strain GLUT8-5): 0.372 h⁻¹
lag time tlag (mean) ([1]; strain GLUT8-5): 17.3 h
growth rate μ (mean) ([1]; strain GLUT8-6): 0.236 h⁻¹
lag time tlag (mean) ([1]; strain GLUT8-6): 10.3 h
growth rate μ (mean) ([1]; strain GLUT8-9): 0.224 h⁻¹
lag time tlag (mean) ([1]; strain GLUT8-9): 12.0 h
growth rate μ (mean) ([1]; strain MG1655 (Table 26)): 0.248 h⁻¹
lag time tlag (mean) ([1]; strain MG1655 (Table 26)): 13.4 h
growth rate μ (mean) ([1]; strain MG1655 (Table 27)): 0.257 h⁻¹
lag time tlag (mean) ([1]; strain MG1655 (Table 27)): 13.0 h
μ (mean) ([2]; growth rate of K-12 MG1655, 10 g/L diacid (sodium salt)): 0.703 h^1
μ (mean) ([2]; growth rate of K-12 MG1655, 20 g/L diacid (sodium salt)): 0.603 h^1
μ (mean) ([2]; growth rate of K-12 MG1655, 30 g/L diacid (sodium salt)): 0.520 h^1
μ (mean) ([2]; growth rate of K-12 MG1655, 40 g/L diacid (sodium salt)): 0.320 h^1
μ (mean) ([2]; growth rate of K-12 MG1655, 50 g/L diacid (sodium salt)): 0.117 h^1
tlag (mean) ([2]; lag time of K-12 MG1655, 10 g/L diacid (sodium salt)): 5.8 h
tlag (mean) ([2]; lag time of K-12 MG1655, 20 g/L diacid (sodium salt)): 7.0 h
tlag (mean) ([2]; lag time of K-12 MG1655, 30 g/L diacid (sodium salt)): 9.4 h
tlag (mean) ([2]; lag time of K-12 MG1655, 40 g/L diacid (sodium salt)): 14.1 h
tlag (mean) ([2]; lag time of K-12 MG1655, 50 g/L diacid (sodium salt)): 29.9 h

Reference: patent US20230139445A1, “BACTERIAL CELLS WITH IMPROVED TOLERANCE TO DIACIDS” (priority 2016, published 2023)
